Source: ChEMBL document CHEMBL1201862, “PubChem BioAssay data set” (2004)
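In this assay, cells in 96-well plates receive the compound at five concentrations for 48 hours. Endpoints are linearly interpolated between the surrounding concentrations. Here, GI50 denotes the concentration required for 50% inhibition of growth.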 Calls of active or inactive are those of the source. Rule as the data show it: active = GI50 up to about 1.1 µM and inactive = higher.

Experiments:
Test in all cases: DTP human tumour cell line panel, 48 h
786-0 = system: 786-0
A498 = system: A498
A549 = system: A549
ACHN = system: ACHN
CCRF-CEM = system: CCRF-CEM
COLO 205 = system: COLO 205
DLD-1 = system: DLD-1
DMS-273 = system: DMS-273
EKVX = system: EKVX
HCC 2998 = system: HCC 2998
HCT-116 = system: HCT-116
HCT-15 = system: HCT-15
HL-60 = system: HL-60
HOP-18 = system: HOP-18
HOP-62 = system: HOP-62
HT-29 = system: HT-29
IGROV-1 = system: IGROV-1
KM-20L2 = system: KM-20L2
KM12 = system: KM12
LOX IMVI = system: LOX IMVI
M14 = system: M14
MOLT-4 = system: MOLT-4
NCI-H23 = system: NCI-H23
NCI-H460 = system: NCI-H460
OVCAR-3 = system: OVCAR-3
OVCAR-5 = system: OVCAR-5
OVCAR-8 = system: OVCAR-8
RPMI-8226 = system: RPMI-8226
RXF 393 = system: RXF 393
SF-539 = system: SF-539
SK-MEL-28 = system: SK-MEL-28
SK-MEL-2 = system: SK-MEL-2
SK-MEL-5 = system: SK-MEL-5
SN12C = system: SN12C
SNB-78 = system: SNB-78
SW-620 = system: SW-620
TK-10 = system: TK-10
UACC-257 = system: UACC-257
UACC-62 = system: UACC-62
UO-31 = system: UO-31
CAKI-1 = system: CAKI-1
DMS-114 = system: DMS-114
HOP-92 = system: HOP-92
K562 = system: K562
M19-MEL = system: M19-MEL
MCF7 = system: MCF7
Malme-3M = system: Malme-3M
NCI-H226 = system: NCI-H226
NCI/ADR-RES = system: NCI/ADR-RES
OVCAR-4 = system: OVCAR-4
SF-295 = system: SF-295
SK-OV-3 = system: SK-OV-3
SNB-19 = system: SNB-19
SNB-75 = system: SNB-75
XF498 = system: XF498

## O=C1c2cccc(NCCCNCCO)c2C(=O)c2cccc(NCCCNCCO)c21
786-0
  GI50: 1.96 µM (inactive)
A498
  GI50: 2.17 µM (inactive)
A549
  GI50: 1.99 µM (inactive)
ACHN
  GI50: 1.59 µM (inactive)
CCRF-CEM
  GI50: 1.34 µM (inactive)
COLO 205
  GI50: 1.36 µM (inactive)
DLD-1
  GI50: 3.13 µM (inactive)
DMS-273
  GI50: 2.02 µM (inactive)
EKVX
  GI50: 2.32 µM (inactive)
HCC 2998
  GI50: 1.08 µM (active)
HCT-116
  GI50: 1.56 µM (inactive)
HCT-15
  GI50: 7.31 µM
HL-60
  GI50: 1.36 µM (inactive)
HOP-18
  GI50: 2.67 µM (inactive)
HOP-62
  GI50: 2.43 µM (inactive)
HT-29
  GI50: 1.41 µM (inactive)
IGROV-1
  GI50: 2.56 µM (inactive)
KM-20L2
  GI50: 2.34 µM (inactive)
KM12
  GI50: 1.92 µM (inactive)
LOX IMVI
  GI50: 2.1 µM (inactive)
M14
  GI50: 2.09 µM (inactive)
MOLT-4
  GI50: 1.35 µM (inactive)
NCI-H23
  GI50: 2.99 µM (inactive)
NCI-H460
  GI50: 1.68 µM (inactive)
OVCAR-3
  GI50: 2.53 µM (inactive)
OVCAR-5
  GI50: 2.65 µM (inactive)
OVCAR-8
  GI50: 1.86 µM (inactive)
RPMI-8226
  GI50: 1.97 µM (inactive)
RXF 393
  GI50: 2.95 µM (inactive)
SF-539
  GI50: 1.86 µM (inactive)
SK-MEL-28
  GI50: 1.96 µM (inactive)
SK-MEL-2
  GI50: 1.92 µM (inactive)
SK-MEL-5
  GI50: 1.78 µM (inactive)
SN12C
  GI50: 1.26 µM (inactive)
SNB-78
  GI50: 2.06 µM (inactive)
SW-620
  GI50: 1.46 µM (inactive)
TK-10
  GI50: 3 µM (inactive)
UACC-257
  GI50: 3.56 µM (inactive)
UACC-62
  GI50: 1.76 µM (inactive)
UO-31
  GI50: 9.68 µM (inactive)

## CCCSc1nc(COC(=O)NC)c(COC(=O)NC)n1C
A498
  GI50: > 62.7 µM (inactive)
A549
  GI50: > 100 µM (inactive)
CAKI-1
  GI50: 48.1 µM (inactive)
CCRF-CEM
  GI50: 20.7 µM (inactive)
COLO 205
  GI50: > 100 µM (inactive)
DMS-114
  GI50: 38.7 µM (inactive)
DMS-273
  GI50: > 95.5 µM (inactive)
EKVX
  GI50: > 100 µM (inactive)
HCC 2998
  GI50: > 100 µM (inactive)
HCT-116
  GI50: > 100 µM (inactive)
HCT-15
  GI50: > 83 µM
HL-60
  GI50: 43.9 µM (inactive)
HOP-18
  GI50: > 100 µM (inactive)
HOP-62
  GI50: > 100 µM (inactive)
HOP-92
  GI50: > 71 µM (inactive)
HT-29
  GI50: > 100 µM (inactive)
IGROV-1
  GI50: > 100 µM (inactive)
K562
  GI50: 31.4 µM (inactive)
KM-20L2
  GI50: > 100 µM (inactive)
KM12
  GI50: > 100 µM (inactive)
LOX IMVI
  GI50: > 100 µM (inactive)
M19-MEL
  GI50: > 95.1 µM (inactive)
MCF7
  GI50: 47.6 µM (inactive)
MOLT-4
  GI50: 27.7 µM (inactive)
Malme-3M
  GI50: > 100 µM (inactive)
NCI-H226
  GI50: > 100 µM (inactive)
NCI-H23
  GI50: > 78.5 µM (inactive)
NCI-H460
  GI50: 54.7 µM (inactive)
NCI/ADR-RES
  GI50: > 100 µM (inactive)
OVCAR-3
  GI50: > 100 µM (inactive)
OVCAR-4
  GI50: > 100 µM (inactive)
OVCAR-5
  GI50: > 100 µM (inactive)
OVCAR-8
  GI50: > 100 µM (inactive)
RPMI-8226
  GI50: 42 µM (inactive)
RXF 393
  GI50: 37.4 µM (inactive)
SF-295
  GI50: > 100 µM (inactive)
SF-539
  GI50: > 100 µM (inactive)
SK-MEL-2
  GI50: > 100 µM (inactive)
SK-MEL-5
  GI50: > 100 µM (inactive)
SK-OV-3
  GI50: > 100 µM (inactive)
SNB-19
  GI50: > 100 µM (inactive)
SNB-75
  GI50: > 91.2 µM (inactive)
SNB-78
  GI50: > 80.5 µM (inactive)
SW-620
  GI50: > 95.7 µM (inactive)
UACC-257
  GI50: > 100 µM (inactive)
UACC-62
  GI50: > 100 µM (inactive)
XF498
  GI50: > 100 µM (inactive)
